Results: US20250295656A1, “COMBINATION OF LURBINECTEDIN AND IMMUNE CHECKPOINT INHIBITORS” (priority 2020, published 2025)

Tested on: U2OS WT cells
Assay: Cytoplasmic quinacrine granularity (intracellular ATP, indicator of ATP release)
Type: cell-based, human
Settings: lurbinectedin 1 nM to 1 μM, MTX 1 and 3 μM, dose-dependent, decreased over time, vs untreated controls
Procedure: (a) Human osteosarcoma U2OS (a), human breast cancer HCC70 (b) human colon cancer HT29 cells (c) and murine methylcholantrene-induced fibrosarcoma MCA205 cells (d) were treated with lurbinectedin (Lurbi, 1 nM, 10 nM, 100 nM and 1 μM) for the indicated times. Subsequently, the cells were stained with 1 μM Hoechst 33342 and 1 μM propidium iodide and assessed for the loss of viability by automated image acquisition. Images were segmented, cellular debris was excluded and the number of cells with normal nuclear morphology was enumerated. Cells stably expressing CALR-GFP were treated as above. Following the cells were fixed with 3.7% of PFA, stained with 1 μM Hoechst 33342 and assessed by automated image acquisition. Images were segmented, cellular debris was excluded and CALR-GFP granularity (a surrogate marker of CALR exposure) was evaluated in the cytoplasmic region of cells with normal nuclear morphology. Wild type cells were treated as above and then assessed for cytoplasmic quinacrine granularity (after staining with the ATP-sensitive dye quinacrine together with Hoechst 33342) by automated image acquisition, segmentation and analysis. Cells stably expressing HMGB1-GFP were treated as above and then assessed for nuclear HMGB1-GFP fluorescence intensity. The cells were fixed and stained with Hoechst 33342 and images were acquired, segmented and analyzed. […]

SMILES: COc1ccc2[nH]c3c(c2c1)CCN[C@]31CS[C@@H]2c3c(OC(C)=O)c(C)c4c(c3[C@H](COC1=O)N1[C@@H]2[C@H]2c3c(cc(C)c(OC)c3O)C[C@@H]([C@@H]1O)N2C)OCO4 [lurbinectedin]
- ATP signal (cytoplasmic quinacrine granularity): significant decrease
